Common to all, as to assay type: biochemical
The target in one experiment is T1, Tie2 (Homo sapiens, UniProt Q02763).
T1 construct: A recombinant fusion protein of GST and the intracellular domains of Tie2; GST; made in house; host or cells: insect cells (Hi-5)
As to the kind of experiment: Tie2-Kinase HTRF-Assay without kinase preactivation (assay 2). The settings on record: 10 μM ATP, pIC50 = −log IC50 in molar concentration, read-out: Tie 2 activity (assay 2). The source says: Tie2-inhibitory activity of compounds of the present invention was quantified employing two Tie2 HTRF assay as described in the following paragraphs.
A recombinant fusion protein of GST and the intracellular domains of Tie2, expressed in insect cells (Hi-5) and purified by Glutathion-Sepharose affinity chromatography was used as kinase. Alternatively, commercially available GST-Tie2-fusion protein (Upstate Biotechnology, Dundee, Scotland) can be used as substrate for the kinase reaction the biotinylated peptide biotin-Ahx-EPKDDAYPLYSDFG (C-terminus in amid form) was used which can be purchased e.g. from the company Biosynthan GmbH (Berlin-Buch, Germany). Detection of phosphorylated product is achieved specifically by a trimeric detection complex consisting of the phosphorylated substrate, streptavidin-XLent (SA-XLent) which binds to biotin, and Europium Cryptate-labeled anti-phosphotyrosine antibody PT66 which binds to phosphorylated tyrosine.
Tie2 (3.5 ng/measurement point) was incubated for 60 min at 22° C. in the presence of 10 μM adenosine-tri-phosphate (ATP) and 1 μM substrate peptide (biotin-Ahx-EPKDDAYPLYSDFG-NH2) with different concentrations of test compounds (0 μM and concentrations in the range 0.001-20 μM) in 5 μl assay buffer [50 mM Hepes/NaOH pH 7, 10 mM MgCl2, 0.5 mM MnCl2, 1.0 mM dithiothreitol, 0.01% NP40, protease inhibitor mixture (“Complete w/o EDTA” from Roche, 1 tablet per 2.5 ml), 1% (v/v) dimethylsulfoxide]. The reaction was stopped by the addition of 5 μl of an aqueous buffer (25 mM Hepes/NaOH pH 7.5, 0.28% (w/v) bovine serum albumin) containing EDTA (90 mM) and the HTRF (Homogeneous Time Resolved Fluorescence) detection reagents streptavidine-XLent (0.2 μM, from Cis Biointernational, Marcoule, France) and PT66-Eu-Chelate (0.3 ng/μl; a europium-chelate labelled anti-phospho-tyrosine antibody from Perkin Elmer).
(§1) The resulting mixture was incubated 1 h at 22° C. to allow the binding of the biotinylated phosphorylated peptide to the streptavidine-XLent and the PT66-Eu-Chelate. Subsequently the amount of phosphorylated substrate peptide was evaluated by measurement of the resonance energy transfer from the PT66-Eu-Chelate to the streptavidine-XLent. Therefore, the fluorescence emissions at 620 nm and 665 nm after excitation at 350 nm was measured in a HTRF reader, e.g. a Rubystar (BMG Labtechnologies, Offenburg, Germany) or a Viewlux (Perkin-Elmer). The ratio of the emissions at 665 nm and at […] was taken as the measure for the amount of phosphorylated substrate peptide. The data were normalised (enzyme reaction without inhibitor=0% inhibition, all other assay components but no enzyme=100% inhibition) and IC50 values were calculated by a 4 parameter fit using an inhouse software.
A general note: Time-resolved FRET reads energy transfer from a long-lived donor to a nearby acceptor.

In a further experiment the target is T2, preactivated Tie2 (Homo sapiens, UniProt Q02763).
T2 construct: A recombinant fusion protein of GST and the intracellular domains of Tie2; GST; made in house; host or cells: insect cells (Hi-5)
T2 sequence (Q02763 770-1124 limits assumed): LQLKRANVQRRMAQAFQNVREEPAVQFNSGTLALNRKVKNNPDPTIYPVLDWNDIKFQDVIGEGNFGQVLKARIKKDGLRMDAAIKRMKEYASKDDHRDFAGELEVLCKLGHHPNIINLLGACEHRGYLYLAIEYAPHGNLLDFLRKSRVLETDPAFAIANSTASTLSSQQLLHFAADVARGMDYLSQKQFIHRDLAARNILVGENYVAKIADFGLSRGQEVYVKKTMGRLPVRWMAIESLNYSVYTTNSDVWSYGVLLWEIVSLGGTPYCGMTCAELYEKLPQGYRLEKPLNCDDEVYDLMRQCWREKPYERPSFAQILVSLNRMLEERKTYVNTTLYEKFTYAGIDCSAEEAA
As to the kind of experiment: Tie2-Kinase HTRF-Assay with kinase preactivation (assay 3). The settings on record: 10 μM ATP, pIC50 = −log IC50 in molar concentration, read-out: Tie 2 activity (assay 3). On the procedure: Assay 3: Tie2-Kinase HTRF-Assay with Kinase Preactivation
A recombinant fusion protein of GST and the intracellular domains of Tie2, expressed in insect cells (Hi-5) and purified by Glutathion-Sepharose affinity chromatography was used as kinase. As substrate for the kinase reaction the biotinylated peptide biotin-Ahx-EPKDDAYPLYSDFG (C-terminus in amid form) was used which can be purchased e.g. from the company Biosynthan GmbH (Berlin-Buch, Germany).
For activation, Tie2 was incubated at a conc. 12.5 ng/μl of for 20 min at 22° C. in the presence of 250 μM adenosine-tri-phosphate (ATP) in assay buffer [50 mM Hepes/NaOH pH 7, 10 mM MgCl2, 0.5 mM MnCl2, 1.0 mM dithiothreitol, 0.01% NP40, protease inhibitor mixture (“Complete w/o EDTA” from Roche, 1 tablet per 2.5 ml)].
For the subsequent kinase reaction, the preactivated Tie2 (0.5 ng/measurement point) was incubated for 20 min at 22° C. in the presence of 10 μM adenosine-tri-phosphate (ATP) and 1 μM substrate peptide (biotin-Ahx-EPKDDAYPLYSDFG-NH2) with different concentrations of test compounds (0 μM and concentrations in the range 0.001-20 μM) in 5 μl assay buffer [50 mM Hepes/NaOH pH 7, 10 mM MgCl2, 0.5 mM MnCl2, 0.1 mM sodium ortho-vanadate, 1.0 mM dithiothreitol, 0.01% NP40, protease inhibitor mixture (“Complete w/o EDTA” from Roche, 1 tablet per 2.5 ml), 1% (v/v) dimethylsulfoxide]. The reaction was stopped by the addition of 5 μl of an aqueous buffer (25 mM Hepes/NaOH pH 7.5, 0.28% (w/v) bovine serum albumin) containing EDTA (90 mM) and the HTRF (Homogeneous Time Resolved Fluorescence) detection reagents streptavidine-XLent (0.2 μM, from Cis Biointernational, Marcoule, France) and PT66-Eu-Chelate (0.3 ng/μl; a europium-chelate labelled anti-phospho-tyrosine antibody from Perkin Elmer).
as §1

The target in another experiment is T3, CDK2/CycE (Homo sapiens, UniProt P24941).
T3 construct: GST; purchased ProQinase GmbH (Freiburg, Germany); host or cells: insect cells (Sf9)
As to the kind of experiment: CDK2 HTRF Assay (assay 4). The settings on record: 10 μM ATP, pIC50 = −log IC50 in molar concentration. From the text:
CDK2/CycE-inhibitory activity of compounds of the present invention was quantified employing the CDK2/CycE HTRF assay as described in the following paragraphs.
Recombinant fusion proteins of GST and human CDK2 and of GST and human CycE, expressed in insect cells (Sf9) and purified by Glutathion-Sepharose affinity chromatography, were purchase from ProQinase GmbH (Freiburg, Germany). As substrate for the kinase reaction biotinylated peptide biotin-Ttds-YISPLKSPYKISEG (C-terminus in amid form) was used which can be purchased e.g. form the company JERINI peptide technologies (Berlin, Germany).
CDK2/CycE was incubated for 60 min at 22° C. in the presence of different concentrations of test compounds in 5 μl assay buffer [50 mM Tris/HCl pH 8.0, 10 mM MgCl2, 1.0 mM dithiothreitol, 0.1 mM sodium ortho-vanadate, 10 μM adenosine-tri-phosphate (ATP), 0.75 μM substrate, 0.01% (v/v) Nonidet-P40 (Sigma), 1% (v/v) dimethylsulfoxide]. The concentration of CDK2/CycE was adjusted depending of the activity of the enzyme lot and was chosen appropriate to have the assay in the linear range, typical concentrations were in the range of 1 ng/ml. The reaction was stopped by the addition of 5 μl of a solution of HTRF detection reagents (0.2 μM streptavidine-XLent and 3.4 nM Phospho-(Ser) CDKs Substrate Antibody [product #2324B, Cell Signalling Technology, Danvers, Mass., USA} and 4 nM Prot-A-EuK [Protein A labeled with Europium Cryptate from Cis biointernational, France, product no. 61PRAKLB]) in an aqueous EDTA-solution (100 mM EDTA, 800 mM KF, 0.2% (w/v) bovine serum albumin in 100 mM HEPES/NaOH pH 7.0).

The structures appear in SMILES notation.

T1 sequence (Q02763 770-1124 limits assumed): as above

As for `CS(=N)(=O)c1cccc(Nc2ncc(-c3ccc(NC(=O)Nc4cc(C(F)(F)F)ccc4F)c(F)c3)c(NCCCN3CCOCC3)n2)c1` (racemic) [Example 43, 1-[2-Fluoro-4-(2-{[3-(RS)-(S-methylsulfonimidoyl)phenyl]amino}-4-[(3-morpholin-4-ylpropyl)amino]-pyrimidin-5-yl)phenyl]-3-[2-fluoro-5-(trifluoromethyl)-phenyl]urea], the IC50 is less than 100 nM on Tie2, less than 100 nM at preactivated Tie2 and greater than 10000 nM on CDK2/CycE.

Values taken from patent US8003655B2, “Substituted sulphoximines as TIE2 inhibitors and salts thereof, pharmaceutical compositions comprising same, methods of preparing same and uses of same” (Bayer Schering Pharma AG, priority 2006, dated 2011).
